This is an account of results in patent US20110212120A1, “Ykur polynucleotides and polypeptides” (VERNALIS (OXFORD) LIMITED, priority 2002, published 2011).

The term IC50 denotes the concentration that gives 50% inhibition. Lower therefore signals greater potency.

The experiment concerns the target T1, YkuR protein (Bacillus subtilis, UniProt O34916).
T1 construct: the full length ykuR gene product could be separated from internally digested gene product; made in house; host or cells: E. coli BL21 (pET24a)
Briefly: YkuR surrogate fluorometric assay (sodium hippurate substrate). The experiment is classed as biochemical, B. subtilis. The note with it: purified YkuR protein expressed in E. coli; phenanthroline added at increasing concentrations; FIG. 3. Here is the method: A fluorometric assay for YkuR and its homologues has been developed using sodium hippurate (benzoyl glycine) as a substrate. Cleavage by YkuR releases free glycine which can be detected using F-phthaldialdehyde. The assay is performed in a total volume of 100 Fl per well in black 96 well microtitre plates. 40 Fl of YkuR protein 20 Fg/ml in 10 mM Hepes pH 6.8 containing 0.5 mM dithiothreitol and 10 mM potassium chloride) is added to the appropriate wells of a 96-well plate. Appropriate concentrations of test compounds dissolved in 20 Fl of 100% DMSO are added, followed by 40 Fl of hippuric acid (250 mM in 50 mM Hepes pH 6.8 containing 0.05% Brij 35). Control wells lack either enzyme or test compound. The reactions are incubated for 1 hour at 37 EC. Following incubation 100 Fl of OPA Reagent (20 mM F-phthaldialdehyde in 50 mM borate buffer pH 9.5 containing 0.1% $-mercaptoethanol) is added to each well. The fluorescence at 460 nm is measure with an SLT Fluostar fluorometer using 355 nm excitation.
Assay using purified YkuR protein expressed in E. coli as described above. Phenanthroline, a known inhibitor of metalloprotease enzyme activity, was added at increasing concentrations to inhibit metalloenzyme activity.

T1 sequence (O34916 whole entry): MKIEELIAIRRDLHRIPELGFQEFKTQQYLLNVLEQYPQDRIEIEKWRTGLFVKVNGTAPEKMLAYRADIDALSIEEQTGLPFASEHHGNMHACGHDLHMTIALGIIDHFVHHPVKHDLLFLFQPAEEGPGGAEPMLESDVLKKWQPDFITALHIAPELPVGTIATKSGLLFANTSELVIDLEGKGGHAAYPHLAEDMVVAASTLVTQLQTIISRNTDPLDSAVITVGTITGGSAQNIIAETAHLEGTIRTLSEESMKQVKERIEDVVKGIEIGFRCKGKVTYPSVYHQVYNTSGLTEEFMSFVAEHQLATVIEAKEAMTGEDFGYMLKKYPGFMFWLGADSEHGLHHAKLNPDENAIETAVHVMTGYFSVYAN

In the case of `c1cnc2c(c1)ccc1cccnc12` [Phenanthroline], the IC50 was 96 µM.
